Reference: ChEMBL document CHEMBL6103589, “Synthesis and evaluation of novel ebselen derivatives as urease inhibitors for combating Helicobacter pylori infections” (Eur J Med Chem, 2025)
Activity calls are given as the source filed them. The calls are words filed in the database; no cut-off is given here.

Tests used:
[1] = Acute toxicity in BALB/c mouse assessed as pathological abnormality in lungs at 1 g/Kg, po single dose administered for 7 days by HE staining based analysis; assay type: organism-based; details: in vivo, 1000 mg/kg, 168 h, time 7 day
GES1 = test: Cytotoxicity against human GES1 cells at upto 75 uM by MTT assay; assay type: toxicity, cell-based; details: ges1, 75 µM
[2] = Acute toxicity in BALB/c mouse assessed as change in stool color at 1 g/Kg, po single dose administered for 7 days; assay type: organism-based; details: in vivo, 1000 mg/kg, 168 h, time 7 day
Helicobacter pylori [3] = test: (§1) Protection against Helicobacter pylori ATCC 43504 infected (MOI 400:1) in human GES1 cell injury model assessed as viable cells at 25 uM pre-treated for 2 hrs followed by bacterial infection measured after 6 hrs by Annexin/V-FITC staining based flow cytometry analysis (reference value: 37.61%); assay type: functional; details: time 8 hrs
Helicobacter pylori [4] = test: Protection against Helicobacter pylori ATCC 43504 infected (MOI 100:1) in human GES1 cell injury model assessed as viable cells followed by bacterial infection at 25 uM pre-treated for 2 hrs measured after 6 hrs by Annexin/V-FITC staining based flow cytometry analysis (reference value: 68.36%); assay type: functional; details: time 8 hrs
Helicobacter pylori [5] = test: In vivo protection against Helicobacter pylori ATCC 43504 infected in BALB/c mouse gastric mucosa model assessed as effect on infiltration at high dose administered once a day for 2 weeks by HE staining based analysis; assay type: functional, organism-based
Helicobacter pylori [6] = test: In vivo protection against Helicobacter pylori ATCC 43504 infected in BALB/c mouse gastric mucosa model assessed as appearance of intact tissue structure at 25 mg/kg administered once a day for 2 weeks by HE staining based analysis; assay type: functional, organism-based
Helicobacter pylori [7] = test: Protection against Helicobacter pylori ATCC 43504 infected (MOI 50:1) in human GES1 cell injury model assessed as necrotic cells at 50 uM pre-treated for 2 hrs followed by bacterial infection measured after 6 hrs by Annexin/V-FITC staining based flow cytometry analysis (reference value: 2.85%); assay type: functional; details: time 8 hrs
Helicobacter pylori [8] = test: as §1, with “200:1)” for “400:1)”, “late apoptotic” for “viable”, “6.28%)” for “37.61%)”; assay type: functional; details: time 8 hrs
Helicobacter pylori [9] = test: (§2) Protection against Helicobacter pylori ATCC 43504 infected (MOI 400:1) in human GES1 cell injury model assessed as necrotic cells at 50 uM pre-treated for 2 hrs followed by bacterial infection measured after 6 hrs by Annexin/V-FITC staining based flow cytometry analysis (reference value: 6.36%); assay type: functional; details: time 8 hrs
Helicobacter pylori [10] = test: Protection against Helicobacter pylori ATCC 43504 infected (MOI 25:1) in human GES1 cell injury model assessed as viable cells at 25 uM pre-treated for 2 hrs measured after 6 hrs by Annexin/V-FITC staining based flow cytometry analysis (reference value: 89.14%); assay type: functional; details: time 8 hrs
Helicobacter pylori [11] = test: Antibacterial activity against Helicobacter pylori ATCC 43504 assessed as inhibition of bacterial colonies at 8 ug/mL incubated for 24 hrs by crystal violet based staining based analysis relative to control; assay type: functional; set-up: scale not given: the % may be the effect or the level left; details: dose 8 µg/ml
Helicobacter pylori [12] = test: as §2, with “late apoptotic” for “necrotic”, “13.62%)” for “6.36%)”; assay type: functional; details: time 8 hrs
[13] = Acute toxicity in BALB/c mouse assessed as change in daily behaviour at 1 g/Kg, po single dose administered for 7 days; assay type: organism-based; details: in vivo, 1000 mg/kg, 168 h, time 7 day
Helicobacter pylori [14] = test: (§3) Protection against Helicobacter pylori ATCC 43504 infected (MOI 50:1) in human GES1 cell injury model assessed as late apoptotic cells at 50 uM pre-treated for 2 hrs followed by bacterial infection measured after 6 hrs by Annexin/V-FITC staining based flow cytometry analysis (reference value: 2.85%); assay type: functional; details: time 8 hrs
Helicobacter pylori [15] = test: as §3, with “25:1)” for “50:1)”, “early” for “late”, “9.89%)” for “2.85%)”; assay type: functional; details: time 8 hrs
Helicobacter pylori [16] = test: In vivo protection against Helicobacter pylori ATCC 43504 infected in BALB/c mouse gastric mucosa model assessed as effect on inflammatory cell infiltration at low dose administered once a day for 2 weeks by HE staining based analysis; assay type: functional, organism-based
Helicobacter pylori [17] = test: as §3, with “200:1)” for “50:1)”, “early” for “late”, “31.93 %)” for “2.85%)”; assay type: functional; details: time 8 hrs
[18] = Stability of the compound in simulated gastric fluid; assay type: physicochemical; details: simulated gi fluid
Helicobacter pylori [19] = test: Protection against Helicobacter pylori ATCC 43504 infected (MOI 400:1) in human GES1 cell injury model assessed as necrotic cells at 25 uM pre-treated for 2 hrs followed by bacterial infection measured after 6 hrs by Annexin/V-FITC staining based flow cytometry analysis (reference value: 6.36%); assay type: functional; details: time 8 hrs
Helicobacter pylori [20] = test: In vivo protection against Helicobacter pylori ATCC 43504 infected in BALB/c mouse gastric mucosa model assessed as effect on inflammatory cell infiltration at 25 mg/kg administered once a day for 2 weeks by HE staining based analysis; assay type: functional, organism-based
Helicobacter pylori [21] = test: Protection against Helicobacter pylori ATCC 43504 infected (MOI 300:1) in human GES1 cell injury model assessed as viable cells at 50 uM pre-treated for 2 hrs followed by bacterial infection measured after 6 hrs by Annexin/V-FITC staining based flow cytometry analysis (reference value: 47.43%); assay type: functional; details: time 8 hrs
Helicobacter pylori [22] = test: Protection against Helicobacter pylori ATCC 43504 infected (MOI 200:1) in human GES1 cell injury model assessed as necrotic cells at 25 uM pre-treated for 2 hrs followed by bacterial infection measured after 6 hrs by Annexin/V-FITC staining based flow cytometry analysis (reference value: 3.92%); assay type: functional; details: time 8 hrs
Helicobacter pylori [23] = test: In vivo protection against Helicobacter pylori ATCC 43504 infected in BALB/c mouse gastric mucosa model assessed as appearance of intact muscularis mucosa at high dose administered once a day for 2 weeks by HE staining based analysis; assay type: functional, organism-based
Helicobacter pylori [24] = test: In vivo protection against Helicobacter pylori ATCC 43504 infected in BALB/c mouse gastric mucosa model assessed as appearance of intact lamina propria at high dose administered once a day for 2 weeks by HE staining based analysis; assay type: functional, organism-based
Helicobacter pylori [25] = test: Protection against Helicobacter pylori ATCC 43504 infected (MOI 400:1) in human GES1 cell injury model assessed as viable cells at 50 uM pre-treated for 2 hrs followed by bacterial infection measured after 6 hrs by Annexin/V-FITC staining based flow cytometry analysis (reference value: 37.61%); assay type: functional; details: time 8 hrs
Helicobacter pylori [26] = test: Protection against Helicobacter pylori ATCC 43504 infected (MOI 50:1) in human GES1 cell injury model assessed as viable cells at 50 uM pre-treated for 2 hrs followed by bacterial infection measured after 6 hrs by Annexin/V-FITC staining based flow cytometry analysis (reference value: 81.14%); assay type: functional; details: time 8 hrs
Helicobacter pylori [27] = test: In vivo protection against Helicobacter pylori ATCC 43504 infected in BALB/c mouse gastric mucosa model assessed as effect on pathological lesion at low dose administered once a day for 2 weeks by HE staining based analysis; assay type: functional, organism-based
Helicobacter pylori [28] = test: as §3, with “300:1)” for “50:1)”, “11.95%)” for “2.85%)”; assay type: functional; details: time 8 hrs

SMILES: O=C(Oc1n[se]c2ccccc12)c1cccc(F)c1
- Activity [1]: Non-toxic
- Activity (GES1): Non-toxic
- Activity [2]: Non-toxic
- Activity (Helicobacter pylori [3]): 82.13%
- Activity (Helicobacter pylori [4]): 91.76%
- Activity (Helicobacter pylori [5]): Active
- Activity (Helicobacter pylori [6]): Active
- Activity (Helicobacter pylori [7]): 0.02%
- Activity (Helicobacter pylori [8]): 0.02%
- Activity (Helicobacter pylori [9]): 2.26%
- Activity (Helicobacter pylori [10]): 98.45%
- Activity (Helicobacter pylori [11]): 100%
- Activity (Helicobacter pylori [12]): 0.72%
- Activity [13]: Non-toxic
- Activity (Helicobacter pylori [14]): 0.02%
- Activity (Helicobacter pylori [15]): 0.51%
- Activity (Helicobacter pylori [16]): Active
- Activity (Helicobacter pylori [17]): 4.38%
- Stability [18]: Stable
- Activity (Helicobacter pylori [19]): 0.32%
- Activity (Helicobacter pylori [20]): Active
- Activity (Helicobacter pylori [21]): 92.33%
- Activity (Helicobacter pylori [22]): 0.12%
- Activity (Helicobacter pylori [23]): Active
- Activity (Helicobacter pylori [24]): Active
- Activity (Helicobacter pylori [25]): 89.4%
- Activity (Helicobacter pylori [26]): 97.06%
- Activity (Helicobacter pylori [27]): inactive
- Activity (Helicobacter pylori [28]): 2.53%
